Assay results from publication PMC2694832, “Pharmacokinetics, tissue distribution and mass balance of radiolabeled dihydroartemisinin in male rats” (Malaria Journal, 2009).

Assay: Tissue distribution of [^14C] DHA
Assay type: in vivo, rats
Settings: for Distribution of radioactivity / % of total AUC / Half-lives of radioactivity / Tissue AUC of radioactivity / % total recovery: male rats i.v. 3 mg/20 μCi/kg; for % total recovery: all measured tissues
Description: Rats treated with a single [^14C] DHA dose of 3 mg/20 μCi/kg intravenously (5 rats per group) were anesthaetized by isofluorane and euthanized via cardiac puncture at 1, 6, 24, 48, 72, 96, and 192 hours, post-dosing. Blood, liver, brain, eyes, adrenals, muscle, lungs, heart, liver, kidneys, spleen, stomach, small intestine, large intestine, perirenal fat and bone marrow samples were removed from each animal by gross dissection. The gastrointestinal tract (GI) was separated into the stomach (oesophagus and stomach), small intestine, and large intestine. Contents were procured from each GI segment. After flushing with saline, these and other tissues were stored. Tissues were rinsed gently, but thoroughly with water to remove remaining traces of blood before storage. Dissecting instruments were also washed between tissue procurements to avoid cross-contamination.
For most of the tissues 20% (w/w) aqueous homogenates of the tissue were prepared. Aqueous homogenates of the faecal and GI content samples were also prepared. Metabolism cages were washed with a solution of 2% Count-off® and the volume was measured. Radioactivity in the plasma samples and in aliquots (approx. 0.02–1.0 ml) of urine and cage washings was determined. The blood cells (primarily erythrocytes), perirenal fat (approx. 0.2 g), bone marrow samples (approx. 0.1 ml), and approximately 300-μl aliquots of the homogenates of faeces, liver, kidneys, heart, brain, stomach and carcass were solubilized with SolvableTM tissue solubilizer (Perkin-Elmer Life and Analytical Sciences, Boston, MA). The homogenates of faeces, stomach content, and intestinal contents were extracted with 50% methanol for 24 hours. Aliquots of blood and pooled urine samples from selected intervals were also analysed for DHA content directly.
Total radioactivity in the collected tissue samples were quantified in duplicate. Weighed tissue aliquots (~0.2 g) were digested overnight in 2 ml of Solvable® tissue solubilizer (Perkin-Elmer Life and Analytical Sciences, Boston, MA) at 50°C. Coloured samples were decolourized by adding a maximum of 0.2 ml of 30% H2O2 for 30–60 minutes. Scintillation cocktail (Hyonic Fluor; Perkin-Elmer Boston. Massachusetts, USA) was then added and radioactivity determined in a Perkin-Elmer Tri-Carb 3100 TR scintillation spectrophotometer (Packard Instrument Co., Downers Grove, Illinois, USA). Faeces and intestinal contents were thoroughly homogenized before taking aliquots. Plasma was also analysed using the HPLC-ECD system to measure the concentration of unchanged DHA, as described by Li et al.

C[C@@H]1CC[C@H]2[C@@H]([14CH3])C(O)O[C@@H]3O[C@@]4(C)CC[C@@H]1[C@]32OO4 (stereo partly drawn) [[^14C] DHA, [16-^14C] DHA]
Distribution of radioactivity (Lungs, 24 hr): 398.52 ng equivalents/tissue gram
Distribution of radioactivity (Lungs, 48 hr): 305.34 ng equivalents/tissue gram
Distribution of radioactivity (Lungs, 72 hr): 303.10 ng equivalents/tissue gram
Distribution of radioactivity (Lungs, 96 hr): 236.70 ng equivalents/tissue gram
Distribution of radioactivity (Lungs, 192 hr): 221.64 ng equivalents/tissue gram
% of total AUC (Lungs): 2.03%
Half-lives of radioactivity (Lungs): 86.19 ± 18.00 h
Tissue AUC of radioactivity (Lungs): 85,916 ng·hr/g
Tissue AUC of radioactivity (Lungs, listed as [^14C]-dihydroartemisinin): 85916 ± 12999 ng·h/g
% of total AUC (Muscle): 0.86%
Half-lives of radioactivity (Muscle): 64.45 ± 13.54 h
Tissue AUC of radioactivity (Muscle): 36371 ± 6994 ng·h/g
Distribution of radioactivity (Plasma, 1 hr): 591.34 ng equivalents/tissue gram
Distribution of radioactivity (Plasma, 6 hr): 540.83 ng equivalents/tissue gram
Distribution of radioactivity (Plasma, 24 hr): 216.03 ng equivalents/tissue gram
Distribution of radioactivity (Plasma, 48 hr): 93.02 ng equivalents/tissue gram
% of total AUC (Plasma): 0.49%
Tissue AUC of radioactivity (Plasma): 20750 ± 1031 ng·h/g
Half-lives of radioactivity (Plasma, listed as [^14C]-dihydroartemisinin): 75.57 ± 7.34 h
Distribution of radioactivity (SI Content, 1 hr): 46426.85 ng equivalents/tissue gram
Distribution of radioactivity (SI Content, 6 hr): 11387.30 ng equivalents/tissue gram
Distribution of radioactivity (SI Content, 24 hr): 2283.61 ng equivalents/tissue gram
Distribution of radioactivity (SI Content, 48 hr): 633.61 ng equivalents/tissue gram
Distribution of radioactivity (SI Content, 72 hr): 575.05 ng equivalents/tissue gram
Distribution of radioactivity (SI Content, 96 hr): 176.57 ng equivalents/tissue gram
Distribution of radioactivity (SI Content, 192 hr): 250.03 ng equivalents/tissue gram
% of total AUC (SI Content): 35.25%
Half-lives of radioactivity (SI Content): 28.73 ± 9.05 h
Tissue AUC of radioactivity (SI Content): 1492988 ± 63053 ng·h/g
Distribution of radioactivity (Small intestine (SI), 1 hr): 8155.95 ng equivalents/tissue gram
Distribution of radioactivity (Small intestine (SI), 6 hr): 3014.58 ng equivalents/tissue gram
Distribution of radioactivity (Small intestine (SI), 24 hr): 821.84 ng equivalents/tissue gram
Distribution of radioactivity (Small intestine (SI), 48 hr): 335.42 ng equivalents/tissue gram
Distribution of radioactivity (Small intestine (SI), 72 hr): 389.72 ng equivalents/tissue gram
Distribution of radioactivity (Small intestine (SI), 96 hr): 235.61 ng equivalents/tissue gram
Distribution of radioactivity (Small intestine (SI), 192 hr): 304.12 ng equivalents/tissue gram
% of total AUC (Small intestine (SI)): 3.10%
Half-lives of radioactivity (Small intestine (SI)): 49.99 ± 34.89 h
Tissue AUC of radioactivity (Small intestine (SI)): 131,264 ng·hr/g
Tissue AUC of radioactivity (Small intestine (SI), listed as [^14C]-dihydroartemisinin): 131264 ± 24631 ng·h/g
Distribution of radioactivity (Spleen, 1 hr): 4,387 ng equivalents/tissue gram
Distribution of radioactivity (Spleen, 1 hr, listed as [^14C]-dihydroartemisinin): 4387.40 ng equivalents/tissue gram
Distribution of radioactivity (Spleen, 6 hr): 3,685 ng equivalents/tissue gram
Distribution of radioactivity (Spleen, 6 hr, listed as [^14C]-dihydroartemisinin): 3684.97 ng equivalents/tissue gram
Distribution of radioactivity (Spleen, 24 hr): 3,061 ng equivalents/tissue gram
Distribution of radioactivity (Spleen, 24 hr, listed as [^14C]-dihydroartemisinin): 3061.40 ng equivalents/tissue gram
Distribution of radioactivity (Spleen, 48 hr): 4,216 ng equivalents/tissue gram
Distribution of radioactivity (Spleen, 48 hr, listed as [^14C]-dihydroartemisinin): 4216.03 ng equivalents/tissue gram
Distribution of radioactivity (Spleen, 72 hr): 4446.65 ng equivalents/tissue gram
Distribution of radioactivity (Spleen, 96 hr): 4464.57 ng equivalents/tissue gram
Distribution of radioactivity (Spleen, 192 hr): 5,170 ng equivalents/tissue gram
Distribution of radioactivity (Spleen, 192 hr, listed as [^14C]-dihydroartemisinin): 5170.22 ng equivalents/tissue gram
% of total AUC (Spleen): 14.58%
Half-lives of radioactivity (Spleen): 114.02 ± 57.67 h
Tissue AUC of radioactivity (Spleen): 617,495 ng·hr/g
Tissue AUC of radioactivity (Spleen, listed as [^14C]-dihydroartemisinin): 617495 ± 410768 ng·h/g
Distribution of radioactivity (Stomach Content, 1 hr): 36.03 ng equivalents/tissue gram
Distribution of radioactivity (Stomach Content, 6 hr): 6289.79 ng equivalents/tissue gram
Distribution of radioactivity (Stomach Content, 24 hr): 22.45 ng equivalents/tissue gram
Distribution of radioactivity (Stomach Content, 48 hr): 98.12 ng equivalents/tissue gram
Distribution of radioactivity (Stomach Content, 72 hr): 18.69 ng equivalents/tissue gram
Distribution of radioactivity (Stomach Content, 96 hr): 11.76 ng equivalents/tissue gram
Distribution of radioactivity (Stomach Content, 192 hr): 343.37 ng equivalents/tissue gram
% of total AUC (Stomach Content): 0.53%
Half-lives of radioactivity (Stomach Content): 16.75 ± 16.30 h
Tissue AUC of radioactivity (Stomach Content): 22362 ± 98089 ng·h/g
Distribution of radioactivity (Stomach, 1 hr): 1366.22 ng equivalents/tissue gram
Distribution of radioactivity (Stomach, 6 hr): 932.33 ng equivalents/tissue gram
Distribution of radioactivity (Stomach, 24 hr): 464.21 ng equivalents/tissue gram
Distribution of radioactivity (Stomach, 48 hr): 342.30 ng equivalents/tissue gram
Distribution of radioactivity (Stomach, 72 hr): 337.48 ng equivalents/tissue gram
Distribution of radioactivity (Stomach, 96 hr): 229.69 ng equivalents/tissue gram
Distribution of radioactivity (Stomach, 192 hr): 218.27 ng equivalents/tissue gram
% of total AUC (Stomach): 1.94%
Half-lives of radioactivity (Stomach): 72.58 ± 12.98 h
Tissue AUC of radioactivity (Stomach): 82125 ± 13428 ng·h/g
Distribution of radioactivity (Testis, 1 hr): 624.14 ng equivalents/tissue gram
Distribution of radioactivity (Testis, 6 hr): 513.53 ng equivalents/tissue gram
Distribution of radioactivity (Testis, 24 hr): 176.47 ng equivalents/tissue gram
Distribution of radioactivity (Testis, 48 hr): 155.78 ng equivalents/tissue gram
Distribution of radioactivity (Testis, 72 hr): 151.29 ng equivalents/tissue gram
Distribution of radioactivity (Testis, 96 hr): 123.54 ng equivalents/tissue gram
Distribution of radioactivity (Testis, 192 hr): 141.04 ng equivalents/tissue gram
Tissue AUC of radioactivity (Testis): 48249 ± 6078 ng·h/g
Half-lives of radioactivity (Testis, listed as [^14C]-dihydroartemisinin): 86.24 ± 40.68 h
Half-lives of radioactivity (Total Amounts line): 69.03 ± 22.13 h
Tissue AUC of radioactivity (Total Amounts line): 4234952.00 ng·h/g
% total recovery (1 hr): 34.57%
% total recovery (6 hr): 34.10%
% total recovery (24 hr): 8.51%
% total recovery (48 hr): 6.50%
% total recovery (72 hr): 6.28%
% total recovery (96 hr): 4.51%
% total recovery (192 hr): ~5.53%
radioactivity in whole blood higher than in plasma (throughout the period measured, rats i.v. 3 mg/20 μCi/kg): 1.8–4.6 fold
total radioactivity found in the content of small intestine (within the first hour after i.v. dosing, rats): 53–86%
